Tests used:
[1] = Implantation of capsule on the sclera of rabbit's eye (fluorescence of hydatoid, fundus camera, tissue); format: in vivo; conditions: 3 days after implantation
Method: A capsule (the collagen particle concentration of its porous PEG sheet: 500 mg/ml) packed with a PEG pellet of FA was implanted on the sclera of the eye of rabbits. One eye of each rabbit was used as a non-implantation control. The conjunctiva was incised 5 mm and the capsule was implanted therethrough into 2 to 15 mm of the corneal limbus. The capsule was fixed by suture. The conjunctiva was finally sutured to terminate the implantation. The hydatoid (100 μl) was collected every other week and the fluorescence intensity thereof was measured using a fluorescence plate reader. Using a fluorescence camera, the fluorochrome in the device implanted on the sclera and the distribution of the pigment slowly released were photographed. […] In FIG. 22, the fluorescences of the cell nucleus (blue fluorescence) and the model drug (green fluorescence) are observed. In FIG. 22, the mark * represents the position in which the PEG capsule was present. […] When the drug passes through RP, the drug is fed to RE. Because RP has a high barrier function, the pigment stops here and is concentrated.

[2] = Low molecular weight drug (FA) slow release from PEGDM:TEGDM sheets; format: physicochemical; conditions: PEGDM:TEGDM 100:0 to 0:100, capsules in PBS
Method: Sheets having changed mixing ratios of PEGDM (Mn 750) and TEGDM (Mw 286.3) were prepared to evaluate their low molecular weight drug slow-releasing capability. The low molecular weight drug used sodium fluorescein (FA, a fluorescent contrast agent clinically used) as a model. PEG sheets were prepared in the 6 patterns of PEGDM:TEGDM=100:0, 95:5, 90:10, 80:20, 50:50, and 0:100; FA was capsulated; and the capsules were immersed in PBS to measure the fluorescence intensity at regular intervals. […] The slow-releasing capability was irrespective of the presence of collagen particles.

O=C([O-])c1ccccc1-c1c2ccc(=O)cc-2oc2cc([O-])ccc12.[Na+].[Na+] [FA, sodium fluorescein]
tissue fluorescence distribution [1]: strong fluorescence was observed in the sclera (SC) and the subretina (RP)
FA slow-releasing capability versus PEGDM:TEGDM ratio [2]: increased mixing ratio of TEGDM suppressed the FA slow-releasing capability
